Patent US11208412B2 (DAEGU-GYEONGBUK MEDICAL INNOVATION FOUNDATION, priority 2017, dated 2021)

Tests used:
Experiment in all cases: Kinase selectivity, DiscoverX scanMAX Kinase assay panel (% control)
Assay type in all cases: binding
[1] = target: T1, kinases of the scanMAX Kinase assay panel (Homo sapiens, UniProt P46734); conditions: MEK3; 1 uM
T1 construct: purchased DiscoverX Co. (contract measurement) scanMAX Kinase assay panel
T1 sequence (P46734 1-347): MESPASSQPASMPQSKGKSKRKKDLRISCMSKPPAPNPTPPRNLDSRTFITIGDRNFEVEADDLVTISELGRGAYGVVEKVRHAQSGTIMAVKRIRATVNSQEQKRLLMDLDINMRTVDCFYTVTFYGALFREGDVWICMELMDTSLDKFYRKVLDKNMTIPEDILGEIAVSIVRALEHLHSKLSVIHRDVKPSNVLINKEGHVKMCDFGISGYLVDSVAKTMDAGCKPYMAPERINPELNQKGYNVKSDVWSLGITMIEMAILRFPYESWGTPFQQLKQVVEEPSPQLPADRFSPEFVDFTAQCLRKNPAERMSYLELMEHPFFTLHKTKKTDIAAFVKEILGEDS
Procedure, shortened: (§1)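 Compounds tested at 1 uM against the scanMAX kinase panel. Signal expressed as % control = (compound − positive control)/(DMSO negative control − positive control) × 100, where positive control = 0% and DMSO = 100%; below 35% counted as activity on that kinase.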

[2] = target: T2, kinases of the scanMAX Kinase assay panel (Homo sapiens, UniProt Q96SB4); conditions: kinase SRPK1; 1 uM in DMSO
T2 construct: purchased DiscoverX Co. (contract measurement) scanMAX Kinase assay panel
Procedure, shortened: as §1

[3] = target: T3, kinases of the scanMAX Kinase assay panel (Homo sapiens, UniProt P53779); conditions: JNK3; 1 uM
T3 construct: purchased DiscoverX Co. (contract measurement) scanMAX Kinase assay panel
Procedure, shortened: as §1

[4] = target: T4, kinases of the scanMAX Kinase assay panel (Homo sapiens, UniProt Q16539); conditions: p38-alpha; 1 uM
T4 construct: purchased DiscoverX Co. (contract measurement) scanMAX Kinase assay panel
Procedure, shortened: as §1

[5] = target: T5, kinases of the scanMAX Kinase assay panel (Homo sapiens, UniProt P51617); conditions: IRAK1; 1 uM
T5 construct: purchased DiscoverX Co. (contract measurement) scanMAX Kinase assay panel
Procedure, shortened: as §1

[6] = test system: kinases of the scanMAX Kinase assay panel; conditions: 1 uM
Procedure, shortened: as §1

[7] = target: T6, kinases of the scanMAX Kinase assay panel (Homo sapiens, UniProt Q56UN5); conditions: kinase YSK4; 1 uM in DMSO
T6 construct: purchased DiscoverX Co. (contract measurement) scanMAX Kinase assay panel
T6 sequence (Q56UN5 1-1328): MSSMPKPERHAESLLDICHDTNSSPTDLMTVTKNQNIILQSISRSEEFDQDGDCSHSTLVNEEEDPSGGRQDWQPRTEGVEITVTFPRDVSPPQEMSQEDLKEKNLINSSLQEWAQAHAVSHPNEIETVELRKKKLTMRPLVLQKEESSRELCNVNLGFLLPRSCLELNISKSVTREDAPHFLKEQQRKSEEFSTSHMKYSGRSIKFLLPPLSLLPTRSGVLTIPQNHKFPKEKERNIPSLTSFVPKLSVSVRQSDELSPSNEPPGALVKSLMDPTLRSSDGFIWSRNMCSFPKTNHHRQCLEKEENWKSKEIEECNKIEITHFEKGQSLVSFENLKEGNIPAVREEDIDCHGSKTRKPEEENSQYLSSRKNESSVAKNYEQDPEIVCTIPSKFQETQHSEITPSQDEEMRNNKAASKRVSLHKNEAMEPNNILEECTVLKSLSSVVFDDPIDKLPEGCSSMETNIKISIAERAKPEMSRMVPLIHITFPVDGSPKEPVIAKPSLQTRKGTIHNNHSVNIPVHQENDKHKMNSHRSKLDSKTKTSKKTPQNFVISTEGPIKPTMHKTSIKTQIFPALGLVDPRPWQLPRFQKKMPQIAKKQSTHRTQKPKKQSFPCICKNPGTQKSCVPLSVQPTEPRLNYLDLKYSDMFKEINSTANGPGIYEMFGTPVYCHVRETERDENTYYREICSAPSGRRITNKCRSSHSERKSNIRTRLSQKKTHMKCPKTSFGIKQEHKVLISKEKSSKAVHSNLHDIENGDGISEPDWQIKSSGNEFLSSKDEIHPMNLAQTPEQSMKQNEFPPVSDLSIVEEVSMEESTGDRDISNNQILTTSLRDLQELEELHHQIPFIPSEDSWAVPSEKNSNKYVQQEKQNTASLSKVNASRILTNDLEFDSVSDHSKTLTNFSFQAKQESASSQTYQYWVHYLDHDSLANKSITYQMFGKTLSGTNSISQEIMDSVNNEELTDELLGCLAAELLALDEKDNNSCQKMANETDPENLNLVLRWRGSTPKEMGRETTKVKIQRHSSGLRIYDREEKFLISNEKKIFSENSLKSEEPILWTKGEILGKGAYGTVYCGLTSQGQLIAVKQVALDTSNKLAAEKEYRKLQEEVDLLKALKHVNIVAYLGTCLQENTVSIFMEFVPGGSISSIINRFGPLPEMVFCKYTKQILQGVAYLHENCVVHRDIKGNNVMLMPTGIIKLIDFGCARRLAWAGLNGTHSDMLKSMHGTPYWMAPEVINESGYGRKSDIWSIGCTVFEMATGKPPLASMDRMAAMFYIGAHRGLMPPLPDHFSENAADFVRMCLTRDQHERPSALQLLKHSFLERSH
Procedure, shortened: as §1

[8] = target: T7, kinases of the scanMAX Kinase assay panel (Homo sapiens, UniProt Q13557); conditions: CAMK2D; 1 uM
T7 construct: purchased DiscoverX Co. (contract measurement) scanMAX Kinase assay panel
Procedure, shortened: as §1

[9] = target: T8, kinases of the scanMAX Kinase assay panel (Homo sapiens, UniProt P27037); conditions: ACVR2A; 1 uM
T8 construct: purchased DiscoverX Co. (contract measurement) scanMAX Kinase assay panel
Procedure, shortened: as §1

T2 sequence (Q96SB4 whole entry): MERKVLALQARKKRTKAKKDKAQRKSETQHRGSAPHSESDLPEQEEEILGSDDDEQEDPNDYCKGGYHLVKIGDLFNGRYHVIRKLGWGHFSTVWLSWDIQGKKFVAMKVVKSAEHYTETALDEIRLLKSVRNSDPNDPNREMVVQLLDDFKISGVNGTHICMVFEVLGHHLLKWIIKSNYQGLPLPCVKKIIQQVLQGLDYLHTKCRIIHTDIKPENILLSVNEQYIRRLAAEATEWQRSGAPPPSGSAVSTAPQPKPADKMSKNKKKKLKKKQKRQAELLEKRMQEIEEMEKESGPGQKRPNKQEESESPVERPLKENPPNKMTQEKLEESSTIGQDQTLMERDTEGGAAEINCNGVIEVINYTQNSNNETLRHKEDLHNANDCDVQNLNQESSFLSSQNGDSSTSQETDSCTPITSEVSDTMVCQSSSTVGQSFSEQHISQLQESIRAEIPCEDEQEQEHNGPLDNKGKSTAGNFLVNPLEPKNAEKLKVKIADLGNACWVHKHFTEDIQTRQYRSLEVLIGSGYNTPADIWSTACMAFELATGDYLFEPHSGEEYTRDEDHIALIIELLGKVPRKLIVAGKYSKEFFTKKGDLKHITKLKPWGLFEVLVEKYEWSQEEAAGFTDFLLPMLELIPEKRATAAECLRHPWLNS
T4 sequence (Q16539 whole entry): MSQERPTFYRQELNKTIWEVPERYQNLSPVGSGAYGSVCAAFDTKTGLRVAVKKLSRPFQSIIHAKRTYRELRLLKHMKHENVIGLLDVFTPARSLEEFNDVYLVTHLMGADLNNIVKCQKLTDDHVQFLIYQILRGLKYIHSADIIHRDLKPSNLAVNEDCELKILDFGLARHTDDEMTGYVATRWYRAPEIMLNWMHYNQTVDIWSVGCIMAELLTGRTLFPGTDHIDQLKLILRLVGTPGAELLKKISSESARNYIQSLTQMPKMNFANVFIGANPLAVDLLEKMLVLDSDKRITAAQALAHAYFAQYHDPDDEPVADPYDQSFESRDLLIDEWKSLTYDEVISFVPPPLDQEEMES
T7 sequence (Q13557 whole entry): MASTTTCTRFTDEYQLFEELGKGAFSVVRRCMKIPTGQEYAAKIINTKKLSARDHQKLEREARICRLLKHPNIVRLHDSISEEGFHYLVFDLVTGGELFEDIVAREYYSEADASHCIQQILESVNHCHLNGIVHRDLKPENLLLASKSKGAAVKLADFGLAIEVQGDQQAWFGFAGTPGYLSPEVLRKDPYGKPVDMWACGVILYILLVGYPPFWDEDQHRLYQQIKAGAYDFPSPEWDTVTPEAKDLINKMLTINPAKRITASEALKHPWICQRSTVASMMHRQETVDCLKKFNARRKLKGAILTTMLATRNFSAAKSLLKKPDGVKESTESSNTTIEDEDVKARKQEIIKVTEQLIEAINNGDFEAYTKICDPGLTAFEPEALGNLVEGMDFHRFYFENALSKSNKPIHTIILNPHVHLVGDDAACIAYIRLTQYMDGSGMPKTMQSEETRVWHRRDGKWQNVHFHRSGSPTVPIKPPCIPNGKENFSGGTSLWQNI
T3 sequence (P53779 whole entry): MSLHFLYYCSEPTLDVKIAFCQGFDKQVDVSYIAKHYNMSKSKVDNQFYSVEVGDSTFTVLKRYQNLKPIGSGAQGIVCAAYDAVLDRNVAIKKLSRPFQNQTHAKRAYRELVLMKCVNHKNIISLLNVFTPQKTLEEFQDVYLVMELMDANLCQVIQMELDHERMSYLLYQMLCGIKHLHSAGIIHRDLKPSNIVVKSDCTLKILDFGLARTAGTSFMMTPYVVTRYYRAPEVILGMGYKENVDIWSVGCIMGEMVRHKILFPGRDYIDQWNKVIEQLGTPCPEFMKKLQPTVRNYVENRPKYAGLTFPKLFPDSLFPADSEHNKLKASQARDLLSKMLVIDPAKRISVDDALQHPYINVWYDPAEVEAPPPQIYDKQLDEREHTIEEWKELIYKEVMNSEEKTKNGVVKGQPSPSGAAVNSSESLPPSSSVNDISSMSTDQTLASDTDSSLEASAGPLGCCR
T8 sequence (P27037 20-513): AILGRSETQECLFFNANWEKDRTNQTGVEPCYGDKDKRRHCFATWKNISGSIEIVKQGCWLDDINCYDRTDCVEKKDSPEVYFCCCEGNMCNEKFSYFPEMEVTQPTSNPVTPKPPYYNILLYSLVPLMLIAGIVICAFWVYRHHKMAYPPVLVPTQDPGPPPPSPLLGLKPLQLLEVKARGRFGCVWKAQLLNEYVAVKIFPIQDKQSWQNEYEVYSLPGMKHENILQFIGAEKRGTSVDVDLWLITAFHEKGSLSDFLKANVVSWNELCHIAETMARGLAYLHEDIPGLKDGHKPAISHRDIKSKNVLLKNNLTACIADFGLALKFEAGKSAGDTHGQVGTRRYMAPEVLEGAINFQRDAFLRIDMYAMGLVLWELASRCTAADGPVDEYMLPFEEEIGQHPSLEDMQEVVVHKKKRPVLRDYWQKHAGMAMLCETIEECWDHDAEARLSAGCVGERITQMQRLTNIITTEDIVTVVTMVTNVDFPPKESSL
T5 sequence (P51617 whole entry): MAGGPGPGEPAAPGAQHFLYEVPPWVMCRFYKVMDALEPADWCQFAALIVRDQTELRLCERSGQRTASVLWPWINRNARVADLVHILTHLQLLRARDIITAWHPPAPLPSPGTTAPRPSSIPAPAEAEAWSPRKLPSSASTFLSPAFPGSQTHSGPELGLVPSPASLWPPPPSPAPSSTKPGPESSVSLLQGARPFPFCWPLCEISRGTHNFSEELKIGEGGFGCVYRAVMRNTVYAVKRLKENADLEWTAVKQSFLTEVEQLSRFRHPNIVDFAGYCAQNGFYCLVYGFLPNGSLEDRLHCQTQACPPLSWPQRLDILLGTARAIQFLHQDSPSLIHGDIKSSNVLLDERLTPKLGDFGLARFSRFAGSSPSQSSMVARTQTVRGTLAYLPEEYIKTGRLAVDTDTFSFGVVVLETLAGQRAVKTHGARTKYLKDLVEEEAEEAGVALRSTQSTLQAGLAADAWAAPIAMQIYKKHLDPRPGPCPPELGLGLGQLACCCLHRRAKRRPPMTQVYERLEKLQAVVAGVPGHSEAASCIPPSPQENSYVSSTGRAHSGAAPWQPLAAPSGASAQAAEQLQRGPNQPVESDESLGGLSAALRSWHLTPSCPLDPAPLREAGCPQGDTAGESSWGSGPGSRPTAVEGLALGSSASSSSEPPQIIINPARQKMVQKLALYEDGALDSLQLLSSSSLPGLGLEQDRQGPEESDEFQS

CCNc1nc(Nc2ccc(C(=O)N3CCC(N4CCOCC4)CC3)cc2OC)nc2[nH]cc(C(F)(F)F)c12 [Example 104, (4-((4-(ethylamino)-5-(trifluoromethyl)-7H-pyrrolo[2,3-d]pyrimidine-2-yl)amino)-3-methoxyphenyl)(4-morpholinopiperidine-1-yl)methanone] was tested, and the remaining binding at 1 µM [1] was 12%, the remaining binding at 1 µM [2] was 100% and the remaining binding at 1 µM [3] was 18%. For the same molecule, the remaining binding at 1 µM [4] was 96%, the remaining binding at 1 µM [5] was 100% and the “% control” value ([6]; EGFR(L747-E749de1, A750P)) was 99%. The “% control” value ([6]; EGFR(L747-S752de1, P753S)) was 98%, the “% control” value ([6]; EGFR(L747-T751de1, Sins)) was 100% and the “% control” value ([6]; EPHAl) was 100%. The “% control” value ([6]; FLT3(ITD)) was 21%, the “% control” value ([6]; FLT3(ITD, D835V)) was 15% and the “% control” value ([6]; FLT3(ITD, F691L)) was 79%. It also gave a remaining binding at 1 µM [7] of 94%, a remaining binding at 1 µM [8] of 66% and a remaining binding at 1 µM [9] of 100%.
Molecule CC1(Nc2nc(Nc3cnn([C@H]4CCN(C5COC5)C[C@@H]4F)c3Cl)nc3[nH]cc(C#N)c23)CC1 [Example 52, 2-((5-chloro-1-((3S,4S)-3-fluoro-1-(oxetane-3-yl)piperidine-4-yl)-1H-pyrazole-4-yl)amino)((1-methylcyclopropyl)amino)-7H-pyrrolo[2,3-d]pyrimidine-5-carbonitrile] has a remaining binding at 1 µM [1] of 0.8%, a remaining binding at 1 µM [2] of 0.05% and a remaining binding at 1 µM [3] of 0%. For the same molecule, the remaining binding at 1 µM [4] was 91%, the remaining binding at 1 µM [5] was 1.4% and the “% control” value ([6]; EGFR(L747-E749de1, A750P)) was 38%. The “% control” value ([6]; EGFR(L747-S752de1, P753S)) was 49%, the “% control” value ([6]; EGFR(L747-T751de1, Sins)) was 68% and the “% control” value ([6]; EPHAl) was 58%. The “% control” value ([6]; FLT3(ITD)) was 0%, the “% control” value ([6]; FLT3(ITD, D835V)) was 0% and the “% control” value ([6]; FLT3(ITD, F691L)) was 0.7%. It also gave a remaining binding at 1 µM [7] of 0%, a remaining binding at 1 µM [8] of 65% and a remaining binding at 1 µM [9] of 98%.
With CNc1nc(Nc2ccc(C(=O)N3CCOCC3)cc2OC)nc2[nH]cc(C#N)c12 [Example 1, 2-((2-methoxy-4-(morpholine-4-carbonyl)phenyl)amino)-4-(methylamino)-7H-pyrrolo[2,3-d]pyrimidine-5-carbonitrile] the remaining binding at 1 µM [1] was 4.3%, the remaining binding at 1 µM [2] was 66% and the remaining binding at 1 µM [3] was 0%. The remaining binding at 1 µM [4] was 94%, the remaining binding at 1 µM [5] was 75% and the “% control” value ([6]; EGFR(L747-E749de1, A750P)) was 98.0%. For the same molecule, the “% control” value ([6]; EGFR(L747-S752de1, P753S)) was 100.0%, the “% control” value ([6]; EGFR(L747-T751de1, Sins)) was 61.0% and the “% control” value ([6]; EPHAl) was 93.0%. For the same molecule, the “% control” value ([6]; FLT3(ITD)) was 83.0%, the “% control” value ([6]; FLT3(ITD, D835V)) was 51.0% and the “% control” value ([6]; FLT3(ITD, F691L)) was 47.0%. For the same molecule, the remaining binding at 1 µM [7] was 12%, the remaining binding at 1 µM [8] was 82% and the remaining binding at 1 µM [9] was 100%.
